Reference: the NIST ThermoML archive (doi:10.1016/j.fluid.2004.09.013)

Details: for mass density: Fluid (supercritical or subcritical phases), Vibrating tube method; for vapor or sublimation pressure: Liquid

C/C=C\C [(Z)-2-butene]
Details | mass density [kg/m3]
393.23 K, 9997 kPa | 513.82
393.23 K, 15000 kPa | 529.93
393.23 K, 20002 kPa | 542.79
393.23 K, 24993 kPa | 553.61
393.23 K, 29998 kPa | 563
393.23 K, 35001 kPa | 571.39
393.23 K, 39987 kPa | 578.89
398.23 K, 2818 kPa | 466.01
398.23 K, 4984 kPa | 481.85
398.23 K, 20014 kPa | 537.23
398.23 K, 25003 kPa | 548.52
398.23 K, 34998 kPa | 566.9
398.23 K, 39994 kPa | 574.66
398.24 K, 9988 kPa | 506.47
398.24 K, 14995 kPa | 523.68
398.24 K, 29983 kPa | 558.24
403.23 K, 3025 kPa | 454.7
403.23 K, 14991 kPa | 517.31
403.23 K, 25002 kPa | 543.35
403.23 K, 29989 kPa | 553.46
403.23 K, 34986 kPa | 562.37
403.23 K, 39984 kPa | 570.38
403.24 K, 4991 kPa | 471.74
403.24 K, 9985 kPa | 498.93
403.24 K, 20009 kPa | 531.6
408.23 K, 14993 kPa | 510.87
408.23 K, 29988 kPa | 548.67
408.23 K, 39992 kPa | 566.14
408.24 K, 3245 kPa | 443.06
408.24 K, 5000 kPa | 461.02
408.24 K, 10003 kPa | 491.26
408.24 K, 20000 kPa | 525.89
408.24 K, 25002 kPa | 538.19
408.24 K, 35001 kPa | 557.91
413.23 K, 34991 kPa | 553.36
413.23 K, 39999 kPa | 561.87
413.24 K, 3479 kPa | 430.52
413.24 K, 4987 kPa | 448.83
413.24 K, 9995 kPa | 483.23
413.24 K, 14993 kPa | 504.29
413.24 K, 20000 kPa | 520.13
413.24 K, 25001 kPa | 532.97
413.24 K, 29987 kPa | 543.83
418.23 K, 9989 kPa | 474.95
418.23 K, 29990 kPa | 538.98
418.24 K, 3727 kPa | 416.94
418.24 K, 4983 kPa | 435.78
418.24 K, 14999 kPa | 497.65
418.24 K, 19989 kPa | 514.28
418.24 K, 24991 kPa | 527.69
418.24 K, 35007 kPa | 548.86
418.24 K, 40000 kPa | 557.55
423.24 K, 3987 kPa | 401.93
423.24 K, 4998 kPa | 421.22
423.24 K, 9996 kPa | 466.36
423.24 K, 14993 kPa | 490.76
423.24 K, 19998 kPa | 508.37
423.24 K, 24983 kPa | 522.32
423.24 K, 30000 kPa | 534.08
423.24 K, 34984 kPa | 544.2
423.24 K, 39995 kPa | 553.2
428.24 K, 4261 kPa | 385.43
428.24 K, 4996 kPa | 404.14
428.24 K, 10003 kPa | 457.53
428.24 K, 14984 kPa | 483.8
428.24 K, 20011 kPa | 502.46
428.24 K, 24985 kPa | 517
428.24 K, 29987 kPa | 529.17
428.24 K, 34985 kPa | 539.65
428.24 K, 40008 kPa | 548.93
433.24 K, 4552 kPa | 367.25
433.24 K, 5002 kPa | 383.51
433.24 K, 9988 kPa | 448.25
433.24 K, 15006 kPa | 476.83
433.24 K, 20002 kPa | 496.43
433.24 K, 24994 kPa | 511.67
433.24 K, 29984 kPa | 524.27
433.24 K, 35007 kPa | 535.14
433.24 K, 39990 kPa | 544.63
438.24 K, 5016 kPa | 356.57
438.24 K, 9984 kPa | 438.25
438.24 K, 15001 kPa | 469.64
438.24 K, 20003 kPa | 490.38
438.24 K, 24991 kPa | 506.29
438.24 K, 29997 kPa | 519.4
438.24 K, 35007 kPa | 530.6
438.24 K, 39994 kPa | 540.34
443.23 K, 5019 kPa | 312.48
443.24 K, 10006 kPa | 428.67
443.24 K, 14981 kPa | 462.28
443.24 K, 20008 kPa | 484.35
443.24 K, 24985 kPa | 500.93
443.24 K, 29991 kPa | 514.54
443.24 K, 34987 kPa | 526.05
443.24 K, 39991 kPa | 536.15
448.23 K, 5020 kPa | 224.32
448.24 K, 9992 kPa | 418.15
448.24 K, 15006 kPa | 454.98
448.24 K, 20001 kPa | 478.13
448.24 K, 24996 kPa | 495.5
448.24 K, 30011 kPa | 509.66
448.24 K, 34990 kPa | 521.51
448.24 K, 39989 kPa | 531.87
453.24 K, 5018 kPa | 172.57
453.24 K, 9981 kPa | 407.03
453.24 K, 14999 kPa | 447.35
453.24 K, 20011 kPa | 471.95
453.24 K, 24994 kPa | 490.05

Details | vapor or sublimation pressure [kPa]
396.4 K | 2209.3
400.36 K | 2343.2
407.79 K | 2693.7
414.25 K | 3004.6
416.29 K | 3089.5
422.73 K | 3456.3
425.59 K | 3598.4
430.42 K | 3884.7
433.88 K | 4101.1
